Where a name gives a salt, the structure may show the parent alone.
Key:
[1] = tested on: experimental allergic rhinitis models; test: experimental allergic rhinitis models; format: in vivo; details: for side-effects: compared with expectation; for reduction in the watery secretion: compared with what is typical for anticholinergic agents
[2] = tested on: animal models of asthma and rhinitis; test: animal models of asthma and rhinitis; details: in vivo
[3] = in vivo, po
water solubility = format: physicochemical

Compound | side-effects [1] | reduction in the watery secretion [1] | effectiveness in animal models of asthma and rhinitis [2] | emesis and signs of nausea [3] | water solubility (water solubility)
C[N+]1(C)CCC(OC(=O)C(O)(c2ccccc2)C2CCCC2)C1 (racemic) [glycopyrrolate] | lower side-effects than expected | longer-lasting reduction in the watery secretion |  |  | 
C[N+]1(C)CC[C@@H](OC(=O)[C@](O)(c2ccccc2)C2CCCC2)C1.[Br-] (single isomer, unassigned) [R,R-isomer, R,R-glycopyrrolate] | lower side-effects than expected | longer-lasting reduction in the watery secretion |  |  | 
O=C(Nc1c(Cl)cncc1Cl)C(=O)c1cn(Cc2ccc(F)cc2)c2ccc(O)cc12 [AWD 12-281] |  |  | highly effective | devoid of emesis and signs of nausea | 
CN1CCCC(n2nc(Cc3ccc(Cl)cc3)c3ccccc3c2=O)CC1 (stereo not shown) [azelastine hydrochloride] |  |  |  |  | sufficient

Source: patent publication US20050222102A1, “Treatment of rhinitis with anticholinergics alone or in combination with antihistamines, phosphodiesterase 4 inhibitors, or corticosteroids” (Sofotec GmbH & Co. KG, priority 2004, published 2005)
